Experimental data reported in patent publication US20180133248A1, “T[…] AGENT AND TREATMENT” (priority 2014, published 2018).

System: normal bank blood
Assay: In vitro pO2 and hemoglobin saturation of bank blood after oxygen or ozone/oxygen treatment
Details: 5 minutes after gas administration
Protocol: Ozone/oxygen was obtained from a pure (medical grade) oxygen by means of a medical ozone generator (Ozomed, a device manufactured in N.C.S.R., Havana, Cuba), at a concentration of 50 mg ozone/L oxygen (ca. 3.7%).
The ability of ozone/oxygen to in vitro raise pO2 of normal bank blood was compared to that of pure medical oxygen. To each one often paired (5+5) blood samples (5 mL each) contained in closed 10 ml vials, 2.5 mL of pure oxygen or ozone/oxygen mixture respectively were carefully bubbled through. Gasometric analyses were performed in test samples 5 minutes after gas administration and also in control untreated samples.

O=O [O2, oxygen]
PO2 (5 mL blood, 2.5 mL gas bubbled through, n = 5, control 41 ± 1): 73 ± 2 | PO2 rise (%) (above control) (n = 5): 78% | HB saturation (n = 5, control 60 ± 1): 86 ± 2
